The text below walks through data of patent US11129861B2, “Methods for treating inflammatory diseases” (OKCHUNDANG CO., LTD., priority 2017, dated 2021).

In data set [1] the test system is xylene topically applied mice. Description: Anti-inflammatory assay: xylene-induced ear inflammation, ear weight and gross signs. The class given is in vivo. The settings on record: 1 mg/kg orally, 11 days; compared with xylene control mice. The protocol:
(§1) One-hundred thirty two 6-week male SPF/VAF CrljOri:CD1 [ICR] mice (OrientBio, Seungnam, Korea; body weight ranged in 29-32 g upon receipt) were prepared, and eight groups of 10 mice each were selected based on the body weights at 7 days after acclimatization based on the body weights (intact control: 33.88±1.11 g, ranged in 31.8˜35.4 g; Xylene treated mice: 33.85±1.32 g, ranged in 31.1-36.6 g), as follows. Animals husbandries were conducted as same as antitussive and expectorant assays. All laboratory animals were treated according to the national regulations of the usage and welfare of laboratory animals, and approved by the Institutional Animal Care and Use Committee in Daegu Haany University (Gyeongsan, Gyeongbuk, Korea) [DHU2016-036, Apr. 22, 2016; ANNEX V].
AR, KOG and SKOG were orally administered as same as antitussive and expectorant assays, once a day for 11 days before xylene topical applications. […]
Two hours after topical application of xylene, circular sections of induced ear were taken using a cork borer with a 7-mm diameter and weighed as absolute wet-weights, and then the relative weights (% of bodyweights) of the ears were calculated to reduce the differences from individual body weights, as follow Equation [2], in the current experiment. […]

Data set [2] relates to xylene topically applied mice. Description: Anti-inflammatory assay: ear histopathology. The class given is in vivo. Particulars: 1 mg/kg orally, 11 days; compared with xylene control mice.
Procedure: Acute inflammations were induced by single topical application of 0.03 ml of xylene (Duksan Pure Chemical Co. Ltd., Ansan, Korea) to the anterior surface of the right ear at 1 hour after last 11th test substance administration, as described previously with some modifications. Equal volume of saline was topically applied in intact vehicle mouse ears, instead of xylene, in our experiment.
After ear weight measurement, individual ear samples were fixed in 10% NBF, and crossly trimmed. Then embedded in paraffin, sectioned (3˜4 μm) and stained with Hematoxylin and eosin (H&E) for general histopathology or toluidine blue for mast cells, and after that the histopathological profiles of each sample were observed under light microscope. To more detail changes, mean total, epidermis and dermis thicknesses of the ear anterior surface, numbers of infiltrated inflammatory cells and mast cells on the dermis of ear (cells/mm^2), collagen occupied region percentages on the dermis (%/mm2) were analyzed using a computer assisted image analysis program, according to previously established methods, respectively. The histopathologist was blinds to group distribution when this analysis was made, and at least five repeated measurements in same histological specimens prepared were considered to calculate each mean histomorphometrical value, whenever possible, in this histopathological evaluation.
A short description of data set [3]: Body weight measurements, anti-inflammatory assay. The class given is in vivo, mice. The settings on record: 1 mg/kg orally. The protocol:
as §1
AR, KOG and SKOG were orally administered as same as antitussive and expectorant assays, once a day for 11 days before xylene topical applications. In addition, DEXA-water soluble granules were dissolved indistilled water as 1.5 mg/ml concentrations (0.1 mg/ml based on DEXA itself), and also orally administered in a volume of 10 ml/kg (as equivalence to 1 mg/kg based on DEXA itself), once a day for 11 days before xylene topical applications. In intact vehicle and xylene control mice, distilled water 10 ml/kg was orally administered, instead of AR, KOG, SKOG or DEXA to provide same restrain stresses, in the present experiment.
Changes of body weights and gains were measured as same methods described in Example 3 and 4.

The test system of data set [4] is mice. The data set is described as follows: Expectorant assay: secondary bronchus histopathology. The class given is in vivo. Particulars: 250 mg/kg orally, 11 days; compared with intact vehicle control. The protocol: AR, KOG and SKOG were orally administered as same as antitussive assay, once a day for 11 days before phenol red treatment. In addition, AM was also dissolved in distilled water as 25 mg/ml concentrations, and orally administered in a volume of 10 ml/kg (as equivalence to 250 mg/kg), once a day for 11 days before phenol red treatment. In intact vehicle control mice, distilled water 10 ml/kg was orally administered, instead of AR, KOG, SKOG or AM to provide same restrain stresses, in the present experiment. Simultaneously, some parts of individual lung (left lateral lobes) were sampled at trachea excisions, and fixed in 10% NBF, and crossly trimmed. Then embedded in paraffin, sectioned (3˜4 μm) and stained with H&E for general histopathology or PAS (periodic acid schiff) for mucous producing cells, and after that the histopathological profiles of each sample were observed under light microscope. […] The histopathologist was blinds to group distribution when this analysis was made, and at least five repeated measurements in same histological specimens prepared were considered to calculate each mean histomorphometrical value, whenever possible, in this histopathological evaluation.

For data set [5], the system named is mice. Description: Expectorant assay: mucous secretions by phenol red (TLF OD, body surface redness). The settings on record: 250 mg/kg orally, 11 days. The class given is in vivo. The protocol: One-hundred twenty one 6-week male SPF/VAF CrljOri: […] Animals husbandries were conducted as same as antitussive assay. All laboratory animals were treated according to the national regulations of the usage and welfare of laboratory animals, and approved by the Institutional Animal Care and Use Committee in Daegu Haany University (Gyeongsan, Gyeongbuk, Korea) [[…] and SKOG were orally administered as same as antitussive assay, once a day for 11 days before phenol red treatment. In addition, AM was also dissolved in distilled water as 25 mg/ml concentrations, and orally administered in a volume of 10 ml/kg (as equivalence to 250 mg/kg), once a day for 11 days before phenol red treatment. In intact vehicle control mice, distilled water 10 ml/kg was orally administered, instead of AR, KOG, SKOG or AM to provide same restrain stresses, in the present experiment. Mucous secretions were measured by single intraperitoneal injection of 5% phenol red (Junsei Chemical Co. […] After ultrasonic for 15 min using ultrasonicator (Model 5210, Branson Ultrasonics, Danbury, Conn., USA), 1 ml NaHCO3 solution (5%, w/v) add to the normal saline, and optical density of these prepared trachea lavage fluid (TLF) were measured at 546 nm using a microplate reader (Model Sunrise, Tecan, Männedorf, Switzerland) as described previously with some modifications.

Data set [6] can be described thus: Body weight measurements, expectorant assay. The class given is in vivo, mice. The settings on record: 250 mg/kg orally. The protocol: One-hundred twenty one 6-week male SPF/VAF CrljOri: CD1[ICR] mice (OrientBio, Seungnam, Korea; body weight ranged in 29-32 g upon receipt) were prepared, and seven groups of 10 mice each were selected based on the body weights at 7 days after acclimatization based on the body weights (Average:34.75±1.32 g, ranged in 31.6-37.4 g), as follows. Animals husbandries were conducted as same as antitussive assay. All laboratory animals were treated according to the national regulations of the usage and welfare of laboratory animals, and approved by the Institutional Animal Care and Use Committee in Daegu Haany University (Gyeongsan, Gyeongbuk, Korea) [DHU2016-035, Apr. 22, 2016; ANNEX IV].
AR, KOG and SKOG were orally administered as same as antitussive assay, once a day for 11 days before phenol red treatment. In addition, AM was also dissolved in distilled water as 25 mg/ml concentrations, and orally administered in a volume of 10 ml/kg (as equivalence to 250 mg/kg), once a day for 11 days before phenol red treatment. In intact vehicle control mice, distilled water 10 ml/kg was orally administered, instead of AR, KOG, SKOG or AM to provide same restrain stresses, in the present experiment.
Changes of body weights and gains were measured as same methods described in Example 3.

[7] abbreviates: 11 days, xylene topically applied mice.
The mark [8] stands for this setting: compared with intact vehicle control.

As to `C[C@@H]1C[C@H]2[C@@H]3CCC4=CC(=O)C=C[C@]4(C)[C@@]3(F)[C@@H](O)C[C@]2(C)[C@@]1(O)C(=O)CO` [DEXA, dexamethasone], in data set [1], the “absolute ear weights, change” value is −48.52% and the “relative ear weights, change” value was −42.61%. For the same molecule, in data set [2], the “Mean ear dermis thicknesses, change” value was −60.02%; the “Mean ear epidermis thicknesses, change” value was −6.35%; the “Mean numbers of infiltrated inflammatory cells on the ear dermis, change” value is −93.13%; the “Mean numbers of infiltrated mast cells on the ear dermis, change” value was determined as 647.56%. In addition, in data set [2], the “Mean percentages of collagen occupied regions on the ear dermis, change” value is reported as 189.63% and the “Mean total ear thicknesses, change” value is reported as −62.39%. The “body weight gains during 11 days, change” value in data set [3] (11 days, compared with xylene control mice) is given as −145.10%. Moreover, in data set [3] (setting [7]), the “Body weight gains (g) [B − A]” value is recorded as −0.92 ± 0.76^ab g, the “Body weights (g) at test material administration First [A]” value worked out at 28.72 ± 1.10 g and the “Body weights (g) at test material administration Last [B]” value is 27.80 ± 1.66^ab g. In addition, in data set [3] (from 2 days after initial administration, compared with intact vehicle and xylene control mice), the “body weights during administration period” value is given as “significant (p<0.01 or p<0.05) decreases of body weights”.

Take `Nc1c(Br)cc(Br)cc1CN[C@H]1CC[C@H](O)CC1` [AM, ambroxol]: in data set [4], the “Mean numbers of secondary bronchus epithelial PAS positive mucous producing cells, change” value is given as 231.58% and the “Mean thicknesses of secondary bronchus mucosa, change” value stood at 41.69%. Further, the “body redness (body surface gross findings)” value in data set [5] (30 min after intraperitoneal injection of phenol red, vs intact control) was “dramatic increases of body redness”. In addition, in data set [5] (setting [8]), the “TLF OD values, change” value is recorded as 33.95%. Further, in data set [6] (11 days, expectorant assay), the “Body weight gains (g) [B − A]” value is 1.99 ± 0.73 g, the “Body weights (g) at test material administration First [A]” value is 29.23 ± 1.16 g and the “Body weights (g) at test material administration Last [B]” value turned out to be 31.22 ± 1.65 g. The “body weight gains during 11 days, change” value in data set [6] (setting [8]) is on record as 6.42%.
